The IC50 is the concentration at which inhibition is half-maximal. Low values mean higher potency, high ones lower potency.

SMILES strings stand for the structures.

The subject of one series is MonoMac6 cells. As to the kind of experiment: Cytostatic activity, MTT assay. It counts as cell-based, human. Conditions: MonoMac6, at a concentration of 100 µM. The procedure: (§1) Since compounds containing trifluoromethyl group has been known for their toxic action on eukaryotic cells and approved as anticancer drugs, we investigated cytostatic properties of the derivatives 2–4 using human hepatocellular carcinoma (HepG2) and monocyte (MonoMac6) cell lines. […] The remaining compounds have no cytostatic effect up to 50 µM. Higher concentrations were not investigated due to solubility problems, i.e., precipitation of crystals. […]
(§2) The cell viability was determined by 3-(4,5-dimethylthiazol-2-yl)-2,5-diphenyltetrazolium bromide (MTT) assay. […] The obtained formazan crystals were dissolved in 100 μL of DMSO and the optical density (OD) of the samples was measured at λ = 540 and 620 nm, respectively, employing an ELISA reader (iEMS Reader, Labsystems, Helsinki, Finland). OD620 values were subtracted from OD540 values and the percent of cytostasis was calculated using the following equation:Cytostatic effect (%) = [1 − (ODtreated/ODcontrol)] × 100 where ODtreated and ODcontrol correspond to the optical densities of the treated and the control cells, respectively). […]

The next series concerns HepG2 cells. As to the kind of experiment: Cytostatic activity, MTT assay. It counts as cell-based, human. The conditions noted are these: HepG2, at a concentration of 100 µM. The procedure:
as §1, §2
A general note: Tetrazolium assays rely on reduction of a dye to a coloured formazan, in cell work by metabolically active cells.

Series [1] has as its target T1, BuChE from equine serum (EqBuChE) (Equus caballus, UniProt P81908).
T1 construct: butyrylcholinesterase from equine serum (EqBuChE); purchased Sigma-Aldrich (Prague, Czech Republic); host or cells: equine serum (natural source)
As to the kind of experiment: biochemical. The conditions noted are these: IC50 BuChE, mean ± SD, n = three independent experiments. As for the experimental part: Newly synthesized N-alkyl-2-[4-(trifluoromethyl)benzoyl]hydrazine-1-carboxamides 2a–2q were evaluated for their in vitro potency to inhibit AChE from electric eel (EeAChE) and BuChE from equine serum (EqBuChE) using modified Ellman’s spectrophotometric method. […] The efficacy of inhibitors is expressed as IC50, i.e., the concentration causing 50% inhibition of the enzyme activity. Based on IC50 values for both enzymes, selectivity indexes (SI) as the ratio of IC50 for BuChE/IC50 for AChE to quantify the preference for AChE were calculated (Table 1).
IC50 values were determined using the spectrophotometric Ellman’s method modified according to Zdražilová et al., which is a simple, rapid and direct method to determine the SH and -S-S- group content. This method is widely used for the screening of the efficiency of cholinesterases inhibitors. The enzymatic activity is measured indirectly by quantifying the concentration of the 5-thio-2-nitrobenzoic acid ion formed in the reaction between the thiol reagent 5,5′-dithio-bis(2-nitrobenzoic acid) and thiocholine, a product of acetylthiocholine substrate hydrolysis by cholinesterases.
The enzyme activity in final reaction mixture (2000 µL) was 0.2 U/mL, concentration of acetylthiocholine (or butyrylthiocholine) 40 µM and concentration of 5,5′-dithio-bis(2-nitrobenzoic acid) 0.1 mM for all reactions. The tested compounds were dissolved in DMSO and then diluted in demineralized water to the concentration of 1 mM. […] All measurements were carried in triplicates and the average values of reaction rate (v0-uninhibited reaction, vi-inhibited reaction) were used for construction of the dependence v0/vi vs. concentration of inhibitor. From obtained equation of regression curve, IC50 values were calculated.
Acetylcholinesterase used was obtained from electric eel (Electrophorus electricus L.; EeAChE) and butyrylcholinesterase from equine serum (EqBuChE).

T1 sequence (P81908 whole entry): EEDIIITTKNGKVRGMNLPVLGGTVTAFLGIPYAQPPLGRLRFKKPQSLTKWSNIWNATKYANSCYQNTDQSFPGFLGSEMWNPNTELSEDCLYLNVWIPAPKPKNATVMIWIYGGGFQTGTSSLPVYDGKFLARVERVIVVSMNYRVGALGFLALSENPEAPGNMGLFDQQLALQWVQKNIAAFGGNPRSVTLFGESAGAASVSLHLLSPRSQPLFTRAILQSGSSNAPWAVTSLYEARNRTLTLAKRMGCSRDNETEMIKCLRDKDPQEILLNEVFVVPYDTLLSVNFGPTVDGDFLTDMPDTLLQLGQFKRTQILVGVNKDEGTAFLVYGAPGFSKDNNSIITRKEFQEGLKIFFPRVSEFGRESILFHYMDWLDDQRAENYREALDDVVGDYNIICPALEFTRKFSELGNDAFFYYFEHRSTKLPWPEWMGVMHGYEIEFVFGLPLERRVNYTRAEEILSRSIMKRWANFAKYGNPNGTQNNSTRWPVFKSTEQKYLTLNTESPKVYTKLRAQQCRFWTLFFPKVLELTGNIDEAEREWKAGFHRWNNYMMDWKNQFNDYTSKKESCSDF

Consider `NNC(=O)c1ccc(C(F)(F)F)cc1` [compound 1, 4-(Trifluoromethyl)benzohydrazide], for which the cytostatic action entry with MonoMac6 cells and in the series with HepG2 cells was “avoided any cytostatic action” throughout. In series [1], this molecule yielded an IC50 of 204 ± 2.69 µM.

These data come from article PMC7287908, “N-Alkyl-2-[4-(trifluoromethyl)benzoyl]hydrazine-1-carboxamides and Their Analogues: Synthesis and Multitarget Biological Activity” (Molecules, 2020).
